Target: BRD4 (Homo sapiens, UniProt O60885)
Assay: Summary of E3 ligase directed degradation of BRD4, estimated from Western Blot or WES (Tables 1-6)
Format: cell-based
Design: endogenous in cells; host or cells: HeLa, MCF7 or HCT116
Settings: for Degradation of BRD4, combination with CRBN ligand [drawing 457]: aryl-boronic acid-containing CRBN ligand drawn as drawing 457 (by the text apparently 8048); for Degradation of BRD4, combination with CRBN ligand [drawing 421] / Degradation of BRD4, combination with CRBN ligand [drawing 422] / Degradation of BRD4, combination with CRBN ligand [drawing 397]: Table 1; for Degradation of BRD4, combination with CRBN ligand [drawing 421]: CRBN ligand drawn as drawing 421 (by the text apparently 8047); for Degradation of BRD4, combination with CRBN ligand [drawing 422]: CRBN ligand drawn as drawing 422 (by the text apparently 8066); for Degradation of BRD4, combination with VHL ligand [drawing 442]: aromatic 1,2-diol-containing VHL ligand drawn as drawing 442 (by the text apparently 8305); for Degradation of BRD4, combination with CRBN ligand [drawing 397]: aromatic 1,2-diol- or hindered cis-1,2-diol-containing CRBN ligand drawn as drawing 397 (by the text apparently 8046); for Degradation of BRD4, combination with MDM2 ligand [drawing 431]: Table 2, aromatic 1,2-diol-containing MDM2 ligand drawn as drawing 431 (by the text apparently 8314)
Protocol: HeLa, MCF7, or HCT116 cells (2.5-3×10^6) were treated for 24 hours with the indicated compounds solubilized in DMSO. The cells were washed in ice-cold PBS and were then lysed in RIPA lysis buffer (150 mM NaCl, 5 mM EDTA, 1% NP-40, 0.5% sodium deoxycholate, 0.1% SDS, 50 mM Tris, pH 8.0) with Roche protease inhibitor complete cocktail and phosphatase inhibitors (10 mM sodium fluoride, 10 mM sodium pyrophosphate, 1 mM sodium orthovanadate and 20 mM β-glycerophosphate). The total protein concentrations were determined by Bradford Protein Assay and 10-20 μg of protein was loaded onto 4-15% Tris-Glycine gradient gels (Biorad). After standard gel electrophoresis, the separated proteins were transferred to PVDF membrane by wet transfer. The immunoblots were then blocked for 1 hour in 5% skim milk in TBST or 5% BSA in TBST, according to manufacturer's instructions, before an overnight incubation at 4° C. with indicated antibodies and membranes. Membranes were then incubated with the appropriate horseradish peroxidase-conjugated secondary antibodies (1:5,000 dilution) for 1 h at room temperature and the bands were visualized using the Clarity Max Western ECL Substrate (Biorad) and the ChemiDoc Imaging System (Biorad). Signal was detected with ECL Western Blotting Substrate (Pierce) and X-ray film processed with a Konica SRX-101 X-ray film processor or captured by Bio-Rad's Chemidoc Imaging system.
WES Simple analysis was performed on WES system (ProteinSimple-Biotechne) according to the manufacturer's instructions. Total protein concentrations of cell lysates were determined by the Pierce BCA kit (Thermo Fisher). 3 μL of 0.3 μg/uL of the protein lysate was loaded onto a 12- to 230-kDa WES assay plate (ProteinSimple) where 300 nL sample was withdrawn through a capillary, subjected to electrophoretic separation of proteins by size, and followed by the simultaneous, HRP-based detection of proteins using the Anti-Rabbit Detection Module (Proteinsimple: #DM-001). The electropherograms were checked then the automatic peak detection was manually corrected if it was required.
A black check mark indicates efficacy of 30% to 70% or higher protein degradation.

| SMILES | Degradation of BRD4, combination with CRBN ligand [drawing 457] (Table 4) | Degradation of BRD4, combination with CRBN ligand [drawing 421] | also measured |
| --- | --- | --- | --- |
| COc1ccc2c(c1)C(c1ccc(Cl)cc1)=N[C@@H](CC(=O)NCCCCNC(=O)c1cccc(O)c1O)c1nnc(C)n1-2 [BRD-N06] | ✓ (A black check mark indicates efficacy of 30% to 70% or higher protein degradation) | – | – |
| COc1ccc2c(c1)C(c1ccc(Cl)cc1)=N[C@@H](CC(=O)NCCOCCOCCOCCNC(=O)c1ccc(O)c(O)c1)c1nnc(C)n1-2 [BRD-N44] | ✓ (A black check mark indicates efficacy of 30% to 70% or higher protein degradation) | – | – |
| CCNC(=O)C[C@@H]1N=C(c2ccc(Cl)cc2)c2cc(-c3ccc4cc(O)c(O)cc4c3)ccc2-n2c(C)nnc21 [BRD-N67] | ✓ (A black check mark indicates efficacy of 30% to 70% or higher protein degradation) | – | Degradation of BRD4, combination with CRBN ligand [drawing 458] (Table 4, aryl-boronic acid-containing CRBN ligand drawn as drawing 458 (by the text apparently 8049)): ✓ (A black check mark indicates efficacy of 30% to 70% or higher protein degradation) |
| CCNC(=O)C[C@@H]1N=C(c2ccc(Cl)cc2)c2cc(OCCOCCOCCOCCOCCOCCNC(=O)c3ccc(O)c(O)c3)ccc2-n2c(C)nnc21 [BRD-N70, N-(17-(((4S)-6-(4-chlorophenyl)-4-(2-(ethylamino)-2-oxoethyl)-1-methyl-4H-benzo[f][1,2,4]triazolo[4,3-a][1,4]diazepin-8-yl)oxy)-3,6,9,12,15-pentaoxaheptadecyl)-3,4-dihydroxybenzamide] | ✓ (A black check mark indicates efficacy of 30% to 70% or higher protein degradation) | – | – |
| COc1ccc2c(c1)C(c1ccc(Cl)cc1)=N[C@@H](CC(=O)NCCNC(=O)Cc1cccc(B(O)O)c1)c1nnc(C)n1-2 [BRD-E38] | – | ✓ (A black check mark indicates efficacy of 30% to 70% or higher protein degradation) | – |
| CCNC(=O)C[C@@H]1N=C(c2ccc(Cl)cc2)c2cc(OCCOCCOCCOCCNC(=O)c3ccc(B(O)O)cc3)ccc2-n2c(C)nnc21 [BRD-E43] | – | ✓ (A black check mark indicates efficacy of 30% to 70% or higher protein degradation) | Degradation of BRD4, combination with CRBN ligand [drawing 422]: ✓ (A black check mark indicates efficacy of 30% to 70% or higher protein degradation) |
| CCNC(=O)C[C@@H]1N=C(c2ccc(Cl)cc2)c2cc(OCCOCCNC(=O)c3ccc(O)c(O)c3)ccc2-n2c(C)nnc21 [BRD-N38, N-(2-(2-(((4S)-6-(4-chlorophenyl)-4-(2-(ethylamino)-2-oxoethyl)-1-methyl-4H-benzo[f][1,2,4]triazolo[4,3-a][1,4]diazepin-8-yl)oxy)ethoxy)ethyl)-3,4-dihydroxybenzamide] | ✓ (A black check mark indicates efficacy of 30% to 70% or higher protein degradation) | – | – |
| COc1ccc2c(c1)C(c1ccc(Cl)cc1)=N[C@@H](CC(=O)NCCOCCOCCNC(=O)c1ccc(B(O)O)cc1)c1nnc(C)n1-2 [BRD-E45] | – | – | Degradation of BRD4, combination with CRBN ligand [drawing 422]: ✓ (A black check mark indicates efficacy of 30% to 70% or higher protein degradation); Degradation of BRD4, combination with VHL ligand [drawing 442] (Table 3): ✓ (A black check mark indicates efficacy of 30% to 70% or higher protein degradation) |
| CCNC(=O)C[C@@H]1N=C(c2ccc(SCc3ccc(B(O)O)cc3)cc2)c2cc(OC)ccc2-n2c(C)nnc21 [BRD-E54] | – | – | Degradation of BRD4, combination with VHL ligand [drawing 442] (Table 3): ✓ (A black check mark indicates efficacy of 30% to 70% or higher protein degradation) |
| COc1ccc2c(c1)C(c1ccc(Cl)cc1)=N[C@@H](CC(=O)Nc1ccc(B(O)O)cc1)c1nnc(C)n1-2 [BRD-E74, (4-(2-((4S)-6-(4-chlorophenyl)-8-methoxy-1-methyl-4H-benzo[f][1,2,4]triazolo[4,3-a][1,4]diazepin-4-yl)acetamido)phenyl)boronic acid] | – | – | Degradation of BRD4, combination with CRBN ligand [drawing 397]: ✓ (A black check mark indicates efficacy of 30% to 70% or higher protein degradation); Degradation of BRD4, combination with MDM2 ligand [drawing 431]: ✓ (A black check mark indicates efficacy of 30% to 70% or higher protein degradation) |
| COc1ccc2c(c1)C(c1ccc(Cl)cc1)=N[C@@H](CC(=O)NCCCCNC(=O)c1ccc(O)c(O)c1)c1nnc(C)n1-2 [BRD-N05] | ✓ (A black check mark indicates efficacy of 30% to 70% or higher protein degradation) | – | – |
| CCNC(=O)C[C@@H]1N=C(c2ccc(Cl)cc2)c2cc(OCCOCCOCCNC(=O)c3ccc(O)c(O)c3)ccc2-n2c(C)nnc21 [BRD-N40] | – | – | Degradation of BRD4, combination with VHL ligand [drawing 465] (Table 6, aryl-boronic acid-containing VHL ligand drawn as drawing 465): ✓ (A black check mark indicates efficacy of 30% to 70% or higher protein degradation) |
| COc1ccc2c(c1)C(c1ccc(Cl)cc1)=N[C@@H](CC(=O)NCCCNC(=O)c1cccc(B(O)O)c1)c1nnc(C)n1-2 [BRD-E04] | – | ✓ (A black check mark indicates efficacy of 30% to 70% or higher protein degradation) | Degradation of BRD4, combination with CRBN ligand [drawing 422]: ✓ (A black check mark indicates efficacy of 30% to 70% or higher protein degradation); Degradation of BRD4, combination with CRBN ligand [drawing 397]: ✓ (A black check mark indicates efficacy of 30% to 70% or higher protein degradation) |
| COc1ccc2c(c1)C(c1ccc(Cl)cc1)=N[C@@H](CC(=O)NCCOCCOCCOCCOCCNC(=O)c1ccc(O)c(O)c1)c1nnc(C)n1-2 [BRD-N69] | ✓ (A black check mark indicates efficacy of 30% to 70% or higher protein degradation) | – | – |
| COc1ccc2c(c1)C(c1ccc(Cl)cc1)=N[C@@H](CC(=O)NCCCCCNC(=O)c1ccc(B(O)O)cc1)c1nnc(C)n1-2 [BRD-E07] | – | – | Degradation of BRD4, combination with CRBN ligand [drawing 422]: ✓ (A black check mark indicates efficacy of 30% to 70% or higher protein degradation) |
| COc1ccc2c(c1)C(c1ccc(Cl)cc1)=N[C@@H](CC(=O)NCc1cccc(B(O)O)c1)c1nnc(C)n1-2 [BRD-E10] | – | ✓ (A black check mark indicates efficacy of 30% to 70% or higher protein degradation) | Degradation of BRD4, combination with CRBN ligand [drawing 397]: ✓ (A black check mark indicates efficacy of 30% to 70% or higher protein degradation); Degradation of BRD4, combination with VHL ligand [drawing 441] (Table 3, aromatic 1,2-diol-containing VHL ligand drawn as drawing 441 (by the text apparently 8304)): ✓ (A black check mark indicates efficacy of 30% to 70% or higher protein degradation) |
| COc1ccc2c(c1)C(c1ccc(Cl)cc1)=N[C@@H](CC(=O)Nc1ccc(O)c(O)c1)c1nnc(C)n1-2 [BRD-N68] | ✓ (A black check mark indicates efficacy of 30% to 70% or higher protein degradation) | – | – |
| CCNC(=O)C[C@@H]1N=C(c2ccc(Cl)cc2)c2cc(OCCOCCOCCNC(=O)c3cccc(B(O)O)c3)ccc2-n2c(C)nnc21 [BRD-E42] | – | ✓ (A black check mark indicates efficacy of 30% to 70% or higher protein degradation) | – |
| COc1ccc2c(c1)C(c1ccc(Cl)cc1)=N[C@@H](CC(=O)NCCNC(=O)c1ccc(O)c(O)c1)c1nnc(C)n1-2 [BRD-N01] | ✓ (A black check mark indicates efficacy of 30% to 70% or higher protein degradation) | – | – |
| COc1ccc2c(c1)C(c1ccc(Cl)cc1)=N[C@@H](CC(=O)NCCNC(=O)Cc1ccc(B(O)O)cc1)c1nnc(C)n1-2 [BRD-E27, (4-(2-((2-(2-((4S)-6-(4-chlorophenyl)-8-methoxy-1-methyl-4H-benzo[f][1,2,4]triazolo[4,3-a][1,4]diazepin-4-yl)acetamido)ethyl)amino)-2-oxoethyl)phenyl)boronic acid] | – | ✓ (A black check mark indicates efficacy of 30% to 70% or higher protein degradation) | – |
| COc1ccc2c(c1)C(c1ccc(Cl)cc1)=N[C@@H](CC(=O)NCCc1ccc(B(O)O)cc1)c1nnc(C)n1-2 [BRD-E14, (4-(2-(2-((4S)-6-(4-chlorophenyl)-8-methoxy-1-methyl-4H-benzo[f][1,2,4]triazolo[4,3-a][1,4]diazepin-4-yl)acetamido)ethyl)phenyl)boronic acid] | – | ✓ (A black check mark indicates efficacy of 30% to 70% or higher protein degradation) | Degradation of BRD4, combination with MDM2 ligand [drawing 431]: ✓ (A black check mark indicates efficacy of 30% to 70% or higher protein degradation); Degradation of BRD4, combination with VHL ligand [drawing 442] (Table 3): ✓ (A black check mark indicates efficacy of 30% to 70% or higher protein degradation) |

— patent US20240000950A1, “THERAPEUTIC CURE-PRO COMPOUNDS FOR TARGETED DEGRADATION OF BET DOMAIN PROTEINS, AND METHODS OF MAKING AND USING THEM” (CORNELL UNIVERSITY, priority 2020, published 2024)
